PubChem BioAssay (NCI)
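GI50: concentration for 50% inhibition of growth. At the TGI there is no net growth.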

Key:
Test in all cases: NCI anticancer screen, dose series, 384-well format; in the data active means GI50 below about 0.43 µM; inactive means the rest
[1] = tested on: PC-3 prostate
[2] = tested on: HCC-2998 colon
[3] = tested on: UACC-257 melanoma
[4] = tested on: HOP-92 NSCLC
[5] = tested on: OVCAR-3 ovarian
[6] = tested on: NCI/ADR-RES ovarian
[7] = tested on: SK-MEL-28 melanoma
[8] = tested on: OVCAR-4 ovarian
[9] = tested on: LOX IMVI melanoma
[10] = tested on: EKVX NSCLC
[11] = tested on: NCI-H23 lung
[12] = tested on: U251 glioblastoma
[13] = tested on: MDA-MB-468 breast
[14] = tested on: RXF 393 renal
[15] = tested on: COLO 205 colon
[16] = tested on: MDA-MB-231 breast
[17] = tested on: OVCAR-8 ovarian
[18] = tested on: RPMI-8226 leukemia
[19] = tested on: SF-295 CNS
[20] = tested on: SNB-75 CNS
[21] = tested on: SF-539 CNS
[22] = tested on: CCRF-CEM leukemia
[23] = tested on: HS 578T breast
[24] = tested on: NCI-H460 NSCLC
[25] = tested on: MOLT-4 leukemia
[26] = tested on: NCI-H522 lung
[27] = tested on: SW-620 colon
[28] = tested on: MALME-3M melanoma
[29] = tested on: HL-60(TB) leukemia
[30] = tested on: SN12C renal
[31] = tested on: CAKI-1 renal
[32] = tested on: TK-10 renal
[33] = tested on: UACC-62 melanoma
[34] = tested on: SF-268 CNS
[35] = tested on: SNB-19 CNS
[36] = tested on: SK-OV-3 ovarian
[37] = tested on: MCF7 breast
[38] = tested on: A498 renal
[39] = tested on: NCI-H226 lung
[40] = tested on: T-47D breast
[41] = tested on: HCT-116 colon
[42] = tested on: A549 NSCLC
[43] = tested on: MDA-MB-435 melanoma
[44] = tested on: NCI-H322M lung
[45] = tested on: ACHN renal
[46] = tested on: M14 melanoma
[47] = tested on: 786-0 renal
[48] = tested on: SR leukemia
[49] = tested on: BT-549 breast
[50] = tested on: UO-31 renal
[51] = tested on: HCT-15 colon
[52] = tested on: OVCAR-5 ovarian
[53] = tested on: DU-145 prostate
[54] = tested on: IGROV1 ovarian
[55] = tested on: SK-MEL-5 melanoma
[56] = tested on: KM12 colon
[57] = tested on: HOP-62 NSCLC
[58] = tested on: SK-MEL-2 melanoma
[59] = tested on: HT29 colon

CNC(=O)c1cc(Oc2ccc(NC(=O)Nc3ccc(Cl)c(C(F)(F)F)c3)c(F)c2)ccn1
5.98 µM: TGI [2]
5.1 µM: TGI [6]
3.09 µM: TGI [28]
14.5 µM: TGI [54]
8.56 µM: TGI [46]
4.7 µM: TGI [15]
12.6 µM: TGI [5]
25.1 µM: TGI [45]
8.6 µM: TGI [41]
> 88.5 µM: TGI [35]
10.7 µM: TGI [24]
3.3 µM: TGI [18]
> 24.7 µM: TGI [26]
14.6 µM: TGI [43]
9.07 µM: TGI [3]
10.1 µM: TGI [57]
5.47 µM: TGI [37]
6.73 µM: TGI [40]
6.02 µM: TGI [19]
8.57 µM: TGI [42]
5.44 µM: TGI [50]
5.43 µM: TGI [4] | TGI [10]
13.9 µM: TGI [27]
inactive: GI50 [1] 3.79 µM | GI50 [2] 2.04 µM | GI50 [3] 2.45 µM | GI50 [4] 2.27 µM | GI50 [5] 4.55 µM | GI50 [6] 2.06 µM | GI50 [7] 1.39 µM | GI50 [8] 2.55 µM | GI50 [9] 1.39 µM | GI50 [10] 2.12 µM | GI50 [11] 1.34 µM | GI50 [12] 3.06 µM | GI50 [13] 1.72 µM | GI50 [14] 2.49 µM | GI50 [15] 1.64 µM | GI50 [16] 1.35 µM | GI50 [17] 2.17 µM | GI50 [18] 1.73 µM | GI50 [19] 2.13 µM | GI50 [20] 5.14 µM | GI50 [21] 2.13 µM | GI50 [22] 3.4 µM | GI50 [23] 2.33 µM | GI50 [24] 3.08 µM | GI50 [25] 1.7 µM | GI50 [26] 2.83 µM | GI50 [27] 2.97 µM | GI50 [28] 0.719 µM | GI50 [29] 0.734 µM | GI50 [30] 3.16 µM | GI50 [31] 2.67 µM | GI50 [32] 3.49 µM | GI50 [33] 2.09 µM | GI50 [34] 4.28 µM | GI50 [35] 4.65 µM | GI50 [36] 3.2 µM | GI50 [37] 1.93 µM | GI50 [38] 3.66 µM | GI50 [39] 1.93 µM | GI50 [40] 1.56 µM | GI50 [41] 1.77 µM | GI50 [42] 2.66 µM | GI50 [43] 3.14 µM | GI50 [44] 2.66 µM | GI50 [45] 3.38 µM | GI50 [46] 1.69 µM | GI50 [47] 2.47 µM | GI50 [48] 1.47 µM | GI50 [49] 3.2 µM | GI50 [50] 2.02 µM | GI50 [51] 2.52 µM | GI50 [52] 5.79 µM | GI50 [53] 3.02 µM | GI50 [54] 2.8 µM | GI50 [55] 1.6 µM | GI50 [56] 3.03 µM | GI50 [57] 2.98 µM
7.66 µM: TGI [33]
28.5 µM: TGI [52]
1.97 µM: TGI [29]
14.4 µM: TGI [34]
7.25 µM: TGI [8]
4.31 µM: TGI [13]
7.59 µM: TGI [31]
6.21 µM: TGI [44]
8.05 µM: TGI [22]
11 µM: TGI [12] | TGI [30]
76.2 µM: TGI [32]
15.5 µM: TGI [56]
3.43 µM: TGI [11]
9.32 µM: TGI [53]
7.34 µM: TGI [49]
3.86 µM: TGI [55]
12.9 µM: TGI [20]
21.7 µM: TGI [38]
4.98 µM: TGI [14]
2.82 µM: TGI [48]
7.35 µM: TGI [23]
7.76 µM: TGI [47]
6.63 µM: TGI [21]
3.2 µM: TGI [25]
5.79 µM: TGI [17]
3.47 µM: TGI [16]
3.99 µM: TGI [9]
9.38 µM: TGI [51]
16.3 µM: TGI [1]
8.75 µM: TGI [7]
9.43 µM: TGI [36]

CC(C)(C)c1ccc(Oc2ccc(N)cn2)cc1
> 100 µM: TGI [1] | TGI [3] | TGI [4] | TGI [5] | TGI [6] | TGI [7] | TGI [8] | TGI [10] | TGI [12] | TGI [16] | TGI [17] | TGI [19] | TGI [20] | TGI [21] | TGI [23] | TGI [24] | TGI [27] | TGI [30] | TGI [58] | TGI [31] | TGI [32] | TGI [33] | TGI [34] | TGI [35] | TGI [36] | TGI [37] | TGI [38] | TGI [40] | TGI [42] | TGI [43] | TGI [44] | TGI [45] | TGI [46] | TGI [47] | TGI [51] | TGI [52] | TGI [53] | TGI [54] | TGI [56] | TGI [57]
1.24 µM: TGI [22]
32.8 µM: TGI [48]
66.2 µM: TGI [14]
0.563 µM: TGI [18]
2.82 µM: TGI [29]
19.3 µM: TGI [25]
inactive: GI50 [1] 43.5 µM | GI50 [2] 17 µM | GI50 [3] 36 µM | GI50 [4] 34.8 µM | GI50 [5] 24.9 µM | GI50 [6] 36.4 µM | GI50 [7] > 100 µM | GI50 [8] 28.1 µM | GI50 [10] 44.2 µM | GI50 [11] 29.1 µM | GI50 [12] 35.8 µM | GI50 [13] 21 µM | GI50 [14] 21.8 µM | GI50 [15] 38.6 µM | GI50 [16] 28.4 µM | GI50 [17] 52.1 µM | GI50 [19] > 100 µM | GI50 [20] 22.1 µM | GI50 [21] 43.4 µM | GI50 [23] 29.5 µM | GI50 [24] 32.7 µM | GI50 [25] 4.83 µM | GI50 [26] 14.7 µM | GI50 [27] 85.7 µM | GI50 [28] 26.9 µM | GI50 [29] 0.479 µM | GI50 [30] 57.7 µM | GI50 [58] > 100 µM | GI50 [31] 24.1 µM | GI50 [32] 93 µM | GI50 [33] > 100 µM | GI50 [34] 26 µM | GI50 [35] > 100 µM | GI50 [36] > 100 µM | GI50 [37] 74.2 µM | GI50 [38] 46.5 µM | GI50 [39] 10.8 µM | GI50 [40] 31.2 µM | GI50 [42] 20.4 µM | GI50 [43] 92.2 µM | GI50 [44] 68.2 µM | GI50 [45] > 100 µM | GI50 [46] > 100 µM | GI50 [47] 24.7 µM | GI50 [48] 14.3 µM | GI50 [49] 12.6 µM | GI50 [51] 29.4 µM | GI50 [52] > 100 µM | GI50 [53] 64.3 µM | GI50 [54] 97.3 µM | GI50 [59] 24.9 µM | GI50 [55] 22.3 µM | GI50 [56] 44.3 µM | GI50 [57] 33 µM
65 µM: TGI [49]
active: GI50 [18] 0.231 µM | GI50 [22] 0.302 µM
39.9 µM: TGI [26]
86.6 µM: TGI [15]
85.8 µM: TGI [11]
72.9 µM: TGI [28]
57.7 µM: TGI [59]
57 µM: TGI [13]
48.6 µM: TGI [2]
52.3 µM: TGI [39]
51.8 µM: TGI [55]
